Results reported in ChEMBL document CHEMBL3217685, “Quantitative affinity-based chemical proteomics of TrkA inhibitors” (Medchemcomm, 2012).

Key:
[1] = target: T1, BDNF/NT-3 growth factors receptor (Homo sapiens, UniProt Q16620); assay: Inhibition of TrkB (unknown origin)
[2] = target: T2, High affinity nerve growth factor receptor (Homo sapiens, UniProt P04629); assay: Inhibition of TrkA (unknown origin)
[3] = target: T2, High affinity nerve growth factor receptor; assay: Inhibition of TrkA (unknown origin) by cell-based assay
[4] = Apparent permeability from apical side to basolateral side of MDCK cells; format: ADME, cell-based, Canis lupus familiaris; details: dog
[5] = Apparent permeability from basolateral side to apical side of MDCK cells; format: ADME, cell-based, Canis lupus familiaris; details: dog
[6] = target: T1, BDNF/NT-3 growth factors receptor; assay: Inhibition of TrkB (unknown origin) by cell-based assay

T1 sequence (Q16620 whole entry): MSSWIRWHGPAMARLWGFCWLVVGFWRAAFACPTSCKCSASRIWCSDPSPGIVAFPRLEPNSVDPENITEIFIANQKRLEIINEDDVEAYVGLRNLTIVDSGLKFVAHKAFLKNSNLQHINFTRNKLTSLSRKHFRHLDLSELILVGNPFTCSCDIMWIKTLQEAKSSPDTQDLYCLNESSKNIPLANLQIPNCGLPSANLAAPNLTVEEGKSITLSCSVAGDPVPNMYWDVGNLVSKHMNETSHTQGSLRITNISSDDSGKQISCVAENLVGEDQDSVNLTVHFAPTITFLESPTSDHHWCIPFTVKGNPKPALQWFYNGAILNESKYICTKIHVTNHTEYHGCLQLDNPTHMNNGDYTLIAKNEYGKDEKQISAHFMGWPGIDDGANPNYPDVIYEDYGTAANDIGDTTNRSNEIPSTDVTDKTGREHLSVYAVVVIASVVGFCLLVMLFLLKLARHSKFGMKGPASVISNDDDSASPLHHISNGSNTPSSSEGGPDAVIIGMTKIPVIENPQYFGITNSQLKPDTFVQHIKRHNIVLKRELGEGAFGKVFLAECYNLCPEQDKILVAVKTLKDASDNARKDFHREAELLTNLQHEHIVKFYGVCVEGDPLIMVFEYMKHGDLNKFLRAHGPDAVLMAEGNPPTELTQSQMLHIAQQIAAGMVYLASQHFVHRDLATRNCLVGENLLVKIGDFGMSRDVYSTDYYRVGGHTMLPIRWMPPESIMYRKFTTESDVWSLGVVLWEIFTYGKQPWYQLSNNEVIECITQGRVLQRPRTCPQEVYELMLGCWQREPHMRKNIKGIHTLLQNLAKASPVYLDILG
T2 sequence (P04629 whole entry): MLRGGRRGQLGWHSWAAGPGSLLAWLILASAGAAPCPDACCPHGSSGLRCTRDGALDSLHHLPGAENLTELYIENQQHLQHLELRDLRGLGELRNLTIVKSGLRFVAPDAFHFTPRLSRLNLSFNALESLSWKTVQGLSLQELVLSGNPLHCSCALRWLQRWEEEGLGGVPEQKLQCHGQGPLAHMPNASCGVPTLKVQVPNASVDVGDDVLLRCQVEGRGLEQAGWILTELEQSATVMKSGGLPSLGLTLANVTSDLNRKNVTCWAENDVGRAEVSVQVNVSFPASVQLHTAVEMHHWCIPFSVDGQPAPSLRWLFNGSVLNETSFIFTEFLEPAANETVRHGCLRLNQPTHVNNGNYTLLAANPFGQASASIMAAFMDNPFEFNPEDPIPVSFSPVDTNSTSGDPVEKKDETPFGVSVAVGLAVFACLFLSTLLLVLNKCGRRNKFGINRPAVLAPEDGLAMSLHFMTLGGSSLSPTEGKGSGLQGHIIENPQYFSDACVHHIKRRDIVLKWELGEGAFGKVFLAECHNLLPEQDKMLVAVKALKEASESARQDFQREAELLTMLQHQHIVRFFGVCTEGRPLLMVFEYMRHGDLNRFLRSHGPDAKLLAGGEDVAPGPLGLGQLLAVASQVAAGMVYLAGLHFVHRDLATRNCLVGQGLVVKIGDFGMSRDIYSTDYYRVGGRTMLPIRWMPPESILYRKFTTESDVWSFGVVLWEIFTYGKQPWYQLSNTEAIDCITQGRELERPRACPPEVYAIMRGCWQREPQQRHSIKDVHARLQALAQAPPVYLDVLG

Structure (SMILES): CC(C)[C@H](CO)Nc1nc(Nc2ccc(C(=O)O)c(Cl)c2)c2ncn(C(C)C)c2n1 [PURVALANOL B]
- IC50 [1]: 11 nM
- IC50 [2]: 51 nM
- IC50 [3]: 1710 nM
- Papp A→B [4]: 1.1 ×10⁻⁶ cm/s
- Papp B→A [5]: < 5 ×10⁻⁶ cm/s
- IC50 [6]: 1300 nM
